The values that follow come from US20140140988A1, “COMBINATION THERAPY OF AN AFUCOSYLATED CD20 ANTIBODY WITH A MDM2 INHIBITOR” (Roche Glycart AG, priority 2010, published 2014).

The assay deals with human Z138 mantle cell lymphoma cell line. In words: Tumor growth inhibition study in vivo, Z138 mantle cell lymphoma xenograft. Also noted: species or system SCID beige mice. Here is the method: Cells were co-injected with Matrigel.
Experimental study protocol was reviewed and approved by local government. […] Continuous health monitoring was carried out on regular basis. Diet food (Provimi Kliba 3337) and water (acidified pH 2.5-3) were provided ad libitum.
Animals were controlled daily for clinical symptoms and detection of adverse effects.
The corresponding vehicle was administered on the same days.

For `CCOc1cc(C(C)(C)C)ccc1C1=N[C@@](C)(c2ccc(Cl)cc2)[C@@](C)(c2ccc(Cl)cc2)N1C(=O)N1CCN(CCCS(C)(=O)=O)CC1` [MDM2 inhibitor], the tumor growth inhibition by setting is: (day 35, single agent 75 mg/kg p.o. once daily, three times weekly over 18 days (FIG. 2)) 35%; (day 35, single agent 150 mg/kg p.o. once daily, three times weekly over 18 days (FIG. 3)) 78%.

Where the note is “day 35 after tumor cell inoculation, single agent 0.5 mg/kg i.p. q7d once weekly for 3 weeks, compared to the control group”, “B-HH6-B-KV1 GE: afucosylated type II anti-CD20 antibody, humanized B-Ly1, glycoengineered; VH SEQ ID No.7, VL SEQ ID No. 20” displayed a tumor growth inhibition of 59%.
